The nature of data set [1]: Solubility of 8-phenylxanthines. The data set is classed as physicochemical.
The target in data set [2] is T1, adenosine A1 receptors (Bos taurus, UniProt P28190).
T1 sequence (P28190 1-326): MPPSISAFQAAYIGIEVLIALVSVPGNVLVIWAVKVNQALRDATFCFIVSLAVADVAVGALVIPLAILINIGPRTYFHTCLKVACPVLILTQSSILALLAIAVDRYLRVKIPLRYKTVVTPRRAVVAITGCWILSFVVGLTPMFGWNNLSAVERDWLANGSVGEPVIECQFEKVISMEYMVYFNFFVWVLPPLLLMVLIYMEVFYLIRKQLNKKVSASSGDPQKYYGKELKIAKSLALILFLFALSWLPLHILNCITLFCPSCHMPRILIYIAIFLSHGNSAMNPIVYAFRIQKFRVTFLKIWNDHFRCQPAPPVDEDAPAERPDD
Put plainly: inhibition of [^3 H]CHA binding to A1 adenosine receptors in bovine brain membranes.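 Further: Filter-bound radioactivity read by liquid scintillation counting, with dose-inhibition curves built from 4–8 test concentrations, each run in triplicate.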
Method: (§1) Incubation was terminated and samples were collected on GF/B filters under vacuum, washed three times, and counted in a liquid scintillation counter. Dose-inhibition curves were generated with four to eight concentrations of the test compound in triplicate incubations.

The next data set in a line: hydrophobicity. The data set is classed as physicochemical.
Data set [3] has as its target T1, adenosine A1 receptors.
Method: as §1
The target of a further data set is T2, A1 receptor in rat brain (Rattus norvegicus, UniProt P25099).
T2 construct: from tissue; host or cells: rat brain
T2 sequence (P25099 1-326): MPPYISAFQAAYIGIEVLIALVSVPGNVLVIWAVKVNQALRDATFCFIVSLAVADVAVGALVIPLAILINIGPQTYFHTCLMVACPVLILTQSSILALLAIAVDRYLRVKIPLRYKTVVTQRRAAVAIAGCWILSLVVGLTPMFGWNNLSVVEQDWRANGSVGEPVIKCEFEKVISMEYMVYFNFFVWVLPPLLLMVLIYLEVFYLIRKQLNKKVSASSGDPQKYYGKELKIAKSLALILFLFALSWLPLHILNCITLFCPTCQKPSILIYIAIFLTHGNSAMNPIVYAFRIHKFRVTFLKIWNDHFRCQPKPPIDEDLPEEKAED
Put plainly: A1 receptor affinity in rat brain. The data set is classed as binding.

In data set [4] the target is T1, adenosine A1 receptors. Put plainly: biochemical.
Method: as §1
Where [5] appears, read: Table I, vs [^3 H]-cyclohexyladenosine, bovine brain.
[6] abbreviates: Table II, vs [^3 H-CHA] in bovine brain.

Structures are written as SMILES. Converted amounts (≈) assume the structure as drawn. “Also recorded” adds a separate entry of the source. Like-named read-outs stand apart in the source and are kept apart here.

For `CCn1c(=O)c2[nH]c(-c3ccccc3)nc2n(CC)c1=O` [1,3-diethyl-8-phenylX, 1,3-diethyl-8-phenylxanthine], the solubility in data set [1] (water, read-out: soluble in water at) came out at 3 µM (≈ 0.853 µg/mL).
Broadly, the IC50 is the concentration needed to halve the response being measured. A lower IC50 goes with greater potency in that assay. As usually defined, the Ki is the equilibrium dissociation constant of an inhibitor or competing ligand from its target. `CCCn1c(=O)c2[nH]c(-c3ccc(Cl)cc3N)nc2n(CCC)c1=O` [B256, 1,3-dipropyl-8-(2-amino-4-chlorophenyl)xanthine]: on adenosine A1 receptors [2] (setting [5]), the IC50 stood at 0.05 nM. Besides, the “activity relative to most active prior art compound (B70)” value at adenosine A1 receptors [2] (bovine brain) is approximately 16 times. Further, on adenosine A1 receptors [2] (bovine brain), the “adenosine receptor blocking activity (in words)” value is on record as “significantly lower; also recorded: extremely potent; also recorded: particularly outstanding activity”. Besides, on adenosine A1 receptors [2] (bovine brain), the “times more potent than xanthine” value is “approximately 4,000,000 times”. Further, the Ki on adenosine A1 receptors [2] (read-out: Ki for adenosine A1 receptors, bovine brain) amounted to 0.022 nM; on adenosine A1 receptors [3] it was 0.022 nM; on A1 receptor in rat brain, 5 nM. Also, the solubility was determined as 30000 µM (≈ 10900 µg/mL) in data set [1] (dmf, organic solvent or mixture, read-out: soluble in DMF at); 1000 µM (≈ 362 µg/mL) in data set [1] (ethanol, organic solvent or mixture, read-out: soluble in ethanol at); 1000 µM (≈ 362 µg/mL) in data set [1] (hot 0.1n koh, read-out: soluble in hot 0.1N KOH at). Also, in data set [1] (water), the “water solubility (in words)” value is “very water-insoluble”. Further, the “hydrophobicity (in words)” value in the data set “hydrophobicity” was “hydrophobic”. Moreover, the “more potent than 8-phenyltheophylline using rat brain” value on A1 receptor in rat brain is recorded as “about 30 fold”. Besides, the “more potent than theophylline using rat brain” value on A1 receptor in rat brain was approximately 2000 fold.
With `CCOc1ccc(-c2nc3c([nH]2)c(=O)n(C)c(=O)n3C)cc1` [8-(p-ethoxyphenyl)T], the half-inhibitory concentration (IC50) on adenosine A1 receptors [2] (setting [6]) was 2 nM.
At adenosine A1 receptors [2] (setting [6]), `C=CCn1c(=O)c2[nH]c(-c3ccc(C)cc3N)nc2n(C)c1=O` [1-allyl-3-methyl-8-(2-amino-4-methylphenyl)X] yielded an IC50 of 7 nM.
For the compound `Cn1c(=O)c2[nH]c(-c3ccc(Cl)cc3N)nc2n(C)c1=O` [B246, 8-(2-Amino-4-Chlorophenyl) Theophylline], the IC50 on adenosine A1 receptors [2] turned out to be 0.15 nM. Also, the “adenosine receptor blocking activity (in words)” value at adenosine A1 receptors [2] (bovine brain) was “significantly lower”. This compound also showed a Ki at adenosine A1 receptors [4] of 0.2 nM.
Consider `Cn1c(=O)c2[nH]c(-c3ccc(N)cc3)nc2n(C)c1=O` [B211, 8-(p-aminophenyl)theophylline], for which, at adenosine A1 receptors [2], the 50% inhibitory concentration (IC50) was 1.7 nM and the affinity, expressed as Ki, was 0.69 nM.
As to `Cn1c(=O)c2[nH]c(-c3ccco3)nc2n(C)c1=O` [8-(2-furyl)T], the IC50 on adenosine A1 receptors [2] was 18 nM.
In the case of `CCCn1c(=O)c2nc[nH]c2n(CCC)c1=O` [B80, 1,3-dipropylxanthine], at adenosine A1 receptors [2], the IC50 is 200 nM and the Ki is 100 nM.
Take `Cn1c(=O)c2nc(-c3cccs3)[nH]c2n(C)c1=O` [8-(2-thienyl)T]: at adenosine A1 receptors [2], the half-maximal inhibitory concentration (IC50) is 5 nM.
Turning to `Cn1c(=O)c2[nH]c(-c3ccc(N)cc3N)nc2n(C)c1=O` [B232, 8-(2,4-diaminophenyl)theophylline], the IC50 on adenosine A1 receptors [2] (setting [5]) stood at 8 nM. For the same compound, the Ki on adenosine A1 receptors [4] stood at 5.9 nM.
The compound `COc1ccc(-c2nc3c([nH]2)c(=O)n(C)c(=O)n3C)cc1` [8-(p-methoxyphenyl)T] gave a half-maximal inhibitory concentration (IC50) on adenosine A1 receptors [2] (setting [6]) of 1.5 nM.
Consider `CCn1c(=O)c2[nH]c(-c3ccc(Cl)cc3N)nc2n(CC)c1=O` [1,3-diethyl-8-(2-amino-4-chlorophenyl)X, 1,3-diethyl-8-(2-amino-4-chlorophenyl)xanthine], for which the IC50 on adenosine A1 receptors [2] (setting [6]) is 0.8 nM. In addition, the Ki on adenosine A1 receptors [4] is 0.32 nM.
On adenosine A1 receptors [2] (setting [6]), `COc1ccc(-c2nc3c([nH]2)c(=O)n(C)c(=O)n3C)c(OC)c1` [8-(2,4-dimethoxyphenyl)T] gave an IC50 of 200 nM.
Compound `Cn1c(=O)c2[nH]c(-c3cccc(N)c3)nc2n(C)c1=O` [8-(m-aminophenyl)T] returned a Ki at adenosine A1 receptors [2] of 5.8 nM. This compound registered an IC50 at adenosine A1 receptors [2] (setting [6]) of 10 nM.
`Cn1c(=O)c2[nH]c(-c3cccc(F)c3)nc2n(C)c1=O` [8-(m-fluorophenyl)T] showed an IC50 at adenosine A1 receptors [2] (setting [6]) of 4 nM.
As to `Cn1c(=O)c2[nH]c(-c3cccc4ccccc34)nc2n(C)c1=O` [8-(1-naphthyl)T], the IC50 at adenosine A1 receptors [2] (setting [6]) is 80 nM.
In the case of `Cn1cnc2c(N)ncnc21` [9-methyladenine], the IC50 on adenosine A1 receptors [2] was 35000 nM.
As to `Cn1c(=O)c2[nH]c(-c3ccc(O)cc3)nc2n(C)c1=O` [8-(p-hydroxyphenyl)T], the Ki at adenosine A1 receptors [2] is 2 nM. At adenosine A1 receptors [2] (setting [6]), this compound returned a half-maximal inhibitory concentration (IC50) of 2 nM.
As to `Cn1c(=O)c2[nH]c(-c3ccccc3F)nc2n(C)c1=O` [8-(o-fluorophenyl)T], the 50% inhibitory concentration (IC50) at adenosine A1 receptors [2] is 12 nM.
The same measure, in the same setting: the value for `Cn1c(=O)c2c(ncn2CCO)n(C)c1=O` [7-(2-hydroxyethyl)T] was 100000 nM; that for `Cn1c(=O)c2[nH]c(-c3cccnc3)nc2n(C)c1=O` [8-(3-pyridyl)T] was 50 nM.
For the compound `Cn1c(=O)c2[nH]c(-c3cccc(C(=O)O)c3)nc2n(C)c1=O` [8-(m-carboxyphenyl)T], on adenosine A1 receptors [2], the Ki was 540 nM. In addition, the IC50 at adenosine A1 receptors [2] (setting [6]) was found to be 1000 nM.
The compound `Cn1c(=O)c2[nH]c(C3CCCC3)nc2n(C)c1=O` [8-cyclopentylT] registered an IC50 on adenosine A1 receptors [2] of 2 nM.
In turn, `Cn1c(=O)c2[nH]c(-c3ccc(I)cc3)nc2n(C)c1=O` [8-(p-iodophenyl)T] displayed an IC50 on adenosine A1 receptors [2] (setting [6]) of 1.3 nM.
Take `CCCn1c(=O)c2nc(-c3ccc(N)cc3N)[nH]c2n(CCC)c1=O` [B262, 1,3-Dipropyl-8-(2,4-Diaminophenyl) Xanthine]: at adenosine A1 receptors [2], the IC50 is 0.2 nM. On adenosine A1 receptors [2] (bovine brain), the “activity relative to most active prior art compound (B70)” value is “four-fold greater” and the “adenosine receptor blocking activity (in words)” value is “substantially less active than B256; also recorded: particularly outstanding activity”. Moreover, the “adenosine receptor blocking activity (in words)” value on adenosine A1 receptors [2] (bovine brain, listed as 262) was “significantly lower”. Further, in data set [1] (water), the “water solubility (in words)” value is given as “much greater water solubility”. At adenosine A1 receptors [4], the affinity, expressed as Ki, was 0.14 nM.
`Cc1ccc(-c2nc3c([nH]2)c(=O)n(C)c(=O)n3C)c(N)c1` [8-(2-amino-4-methylphenyl)T] gave an IC50 on adenosine A1 receptors [2] (setting [6]) of 10 nM.
On the same count and under the same terms, the value for `Cc1cccc(-c2nc3c([nH]2)c(=O)n(C)c(=O)n3C)c1` [8-(m-methylphenyl)T] was 13 nM.
`Cn1c(=O)c2[nH]c(-c3ccc([N+](=O)[O-])cc3N)nc2n(C)c1=O` [8-(2-amino-4-nitrophenyl)T]: on adenosine A1 receptors [2] (setting [6]), the IC50 was found to be 2.5 nM. Besides, the Ki on adenosine A1 receptors [4] came out at 1.2 nM.
Take `CC(C)c1ccc(-c2nc3c([nH]2)c(=O)n(C)c(=O)n3C)cc1` [8-(p-isopropylphenyl)T]: the IC50 at adenosine A1 receptors [2] (setting [6]) came to 2.5 nM.
With `Cn1c(=O)c2[nH]c(-c3cccc([N+](=O)[O-])c3)nc2n(C)c1=O` [8-(m-nitrophenyl)T], the inhibition constant (Ki) on adenosine A1 receptors [2] was 22 nM. The IC50 at adenosine A1 receptors [2] (setting [6]) was found to be 50 nM.
In the case of `COc1cccc(-c2nc3c([nH]2)c(=O)n(C)c(=O)n3C)c1` [8-(m-methoxyphenyl)T], on adenosine A1 receptors [2] (setting [6]), the concentration for half-maximal inhibition (IC50) came to 20 nM.
Still for that read-out and setting: the value for `Cn1c(=O)c2[nH]c(-c3ccoc3)nc2n(C)c1=O` [8-(3-furyl)T] was 4 nM; that for `CCn1c(=O)c2[nH]c(-c3ccc(Br)cc3)nc2n(CC)c1=O` [1,3-diethyl-8-(p-bromophenyl)X] was 1 nM.
`Cn1c(=O)c2[nH]c(-c3ccc([N+](=O)[O-])cc3)nc2n(C)c1=O` [8-(p-nitrophenyl)T] came in with a Ki at adenosine A1 receptors [2] of 4 nM. This compound registered an IC50 on adenosine A1 receptors [2] (setting [6]) of 8 nM.
At adenosine A1 receptors [2], `CCn1c(=O)c2nc[nH]c2n(CC)c1=O` [1,3-diethylX] yielded an IC50 of 3000 nM and a Ki of 1400 nM.
As for `COc1ccc(-c2nc3c([nH]2)c(=O)n(C)c(=O)n3C)cc1OC` [8-(3,4-dimethoxyphenyl)T], the IC50 at adenosine A1 receptors [2] is 20 nM.
For the compound `Cn1c(=O)c2[nH]c(-c3ccccc3C(=O)O)nc2n(C)c1=O` [8-(o-carboxyphenyl)T], the affinity at adenosine A1 receptors [2] corresponds to a Ki of 21000 nM. For the same compound, the IC50 on adenosine A1 receptors [2] (setting [6]) was found to be 2500 nM.
Turning to `Cn1c(=O)c2[nH]c(-c3ccccc3[N+](=O)[O-])nc2n(C)c1=O` [8-(o-nitrophenyl)T], the Ki at adenosine A1 receptors [2] is 49 nM. Besides, at adenosine A1 receptors [2] (setting [6]), the IC50 was determined as 80 nM.
On to `Cn1c(=O)c2[nH]c(-c3ccc4ccccc4c3)nc2n(C)c1=O` [8-(2-naphthyl)T], for which, on adenosine A1 receptors [2], the IC50 amounted to 5 nM.

For the origin of these results see US4769377A, “Adenosine receptor antagonists” (priority 1986, dated 1988).
